The values that follow come from PubChem BioAssay AID1996.

≈ marks a conversion by molar mass, not a printed value. Some results are limits rather than exact numbers.

For the data set the following is noted: buffer; pH 7.4; 200.0 µM.
Compound `O=C(Nc1ccc(Cl)cc1)N1CCOCC1` returned a solubility (kinetic) of more than 36.1 µg/mL.

Compound `Cc1cccc(C)c1NC(=O)CNC(=O)c1ccc2c(c1)NC(=O)CS2` displayed a kinetic solubility of 41 µg/mL (≈ 111 µM).

The compound `CC(=O)c1c(OCC(=O)N(C)C2CCCCC2)ccc2c(C)cc(=O)oc12` displayed a kinetic solubility of more than 55.7 µg/mL.

With `O=C(NCc1ccccc1Cl)c1cc2ccccc2oc1=O`, the kinetic solubility was less than 0.7 µg/mL.

`Cc1cc(C(=O)Nc2cccc3ccccc23)c(C)o1`: the kinetic solubility amounted to 4 µg/mL (≈ 15.1 µM).

`CC(=O)c1cccc(NC(=O)CNC(=O)Cc2ccccc2)c1` showed a kinetic solubility of 43.7 µg/mL (≈ 141 µM).

On to `CC1CN=C(N(C(=O)Nc2ccccc2)C(C)c2ccccc2)S1` (configuration not stated), for which the solubility (kinetic) is 27 µg/mL (≈ 79.5 µM).

The compound `O=C1Nc2ccccc2Sc2ccccc21` had a kinetic solubility of 1.2 µg/mL (≈ 5.28 µM).

The compound `COc1cccc(NC(=O)Nc2cc(C)on2)c1` had a kinetic solubility of more than 37.1 µg/mL.

`Cc1csc(=O)n1CC(=O)Nc1ccc(Cl)c(Cl)c1` yielded a solubility (kinetic) of 9.7 µg/mL (≈ 30.6 µM).

The compound `CCOc1ncccc1C(=O)OCC(=O)NCc1ccc2c(c1)OCO2` registered a kinetic solubility of more than 53.8 µg/mL.

The compound `Cc1cc(C)cc(NC(=O)Nc2ccccc2N2CCCCC2)c1` came in with a kinetic solubility of 25.5 µg/mL (≈ 78.8 µM).

In turn, `CC1Cc2ccccc2N1C(=O)c1ccc2c(c1)OCO2` (configuration not stated) returned a kinetic solubility of more than 42.2 µg/mL.

`Cc1cc(C)nc(SCC(=O)c2ccc(F)c(C)c2)n1` yielded a kinetic solubility of 14.7 µg/mL (≈ 50.6 µM).

On to `COc1ccc(/C(C)=N/NC(=O)CNC(=O)c2ccco2)cc1`, for which the kinetic solubility is more than 47.3 µg/mL.

Compound `O=C(COC(=O)c1cccc(O)c1)NCc1ccc2c(c1)OCO2` displayed a solubility (kinetic) of more than 49.4 µg/mL.

With `COc1cccc(/C=N/c2nc3ccccc3[nH]2)c1O`, the kinetic solubility was found to be 33.2 µg/mL (≈ 124 µM).

`COc1ccc2oc(C(=O)Nc3nc(C)cs3)c(C)c2c1`: the kinetic solubility stood at 4.8 µg/mL (≈ 15.9 µM).

As to `CC(=Nc1ccc2c(c1)CCC2)c1c(O)n(-c2ccccc2)c(=O)[nH]c1=O`, the kinetic solubility is less than 0.3 µg/mL.

`O=C(N/C(=C\c1ccc(Cl)cc1)C(=O)N1CCCCC1)c1ccco1` came in with a solubility (kinetic) of more than 53.8 µg/mL.

The compound `CC(C)C(O)(C#CCN1CCCCCC1)c1ccccc1.Cl` (configuration not stated) gave a solubility (kinetic) of more than 48.3 µg/mL.

Compound `CSc1nc2ccc(NC(=O)c3ccccn3)cc2s1` had a kinetic solubility of 0.5 µg/mL (≈ 1.66 µM).

`O=C(c1ccccc1)c1cc2cc(Cl)ccc2[nH]1` returned a solubility (kinetic) of less than 0.5 µg/mL.

In turn, `CC(C)NC(=O)C(=O)NCc1ccccn1` yielded a kinetic solubility of more than 33.2 µg/mL.

Consider `N[C@@H](Cc1cc(Br)c(O)c(Br)c1)C(=O)O`, for which the solubility (kinetic) was more than 50.8 µg/mL.

In turn, `CCCN1CCC(NC(=O)Cc2ccc(C)cc2)CC1` gave a kinetic solubility of 39.7 µg/mL (≈ 145 µM).

`CCOc1ccc(NCc2cc3cc(OC)ccc3[nH]c2=O)cc1`: the solubility (kinetic) came out at 2.1 µg/mL (≈ 6.47 µM).

In turn, `C=CCn1c(=O)c2c(nc3n2CCCN3Cc2ccccc2)n(C)c1=O` yielded a kinetic solubility of 19.5 µg/mL (≈ 55.5 µM).

For `CC(C)N1C(=O)C2(OCCCO2)c2cc(Br)ccc21`, the solubility (kinetic) was 46.9 µg/mL (≈ 144 µM).

In turn, `CC(C)C(NS(=O)(=O)c1ccccc1)C(=O)NC1CCCC1` (configuration not stated) displayed a kinetic solubility of more than 48.7 µg/mL.

Consider `Cc1cccc(/N=C2/NC(=O)C(Cc3ccccc3)S2)n1` (configuration not stated), for which the kinetic solubility was determined as 0.3 µg/mL (≈ 1.01 µM).

For the compound `CC1CN(CC(=O)NCc2ccc(Cl)cc2)CC(C)O1` (configuration not stated), the kinetic solubility was more than 44.5 µg/mL.

Regarding `OCCNc1c2ccccc2nc2ccccc12`, the solubility (kinetic) is 33.7 µg/mL (≈ 141 µM).

With `Cl.Fc1ccc(CNCc2ccc3c(c2)OCO3)cc1`, the solubility (kinetic) was more than 44.4 µg/mL.

`Cc1ccc(C2NC(=O)c3ccccc3O2)cc1` (configuration not stated) came in with a kinetic solubility of 10.6 µg/mL (≈ 44.3 µM).

Turning to `C=CCSc1nc(C)c(CCC(C)C)c(=O)[nH]1`, the solubility (kinetic) turned out to be 9.2 µg/mL (≈ 36.5 µM).

As to `CC1(C)C(=O)Nc2ccccc2N1C(=O)COC(=O)Cc1ccc(Cl)c(Cl)c1`, the kinetic solubility was 10.1 µg/mL (≈ 24 µM).

`Cc1ccc(-c2nc3ncccc3o2)cc1NC(=O)c1ccc([N+](=O)[O-])o1` displayed a kinetic solubility of 1.7 µg/mL (≈ 4.67 µM).

As for `Cc1nc2cc(NC(=O)Nc3cccc(F)c3)ccc2n1C`, the kinetic solubility is 3.3 µg/mL (≈ 11.1 µM).

With `Cc1ccnc(NC2CCCCC2)c1`, the solubility (kinetic) is 25.3 µg/mL (≈ 133 µM).

Turning to `O=[N+]([O-])/C=C1\NCCN1Cc1ccc(Cl)nc1`, the kinetic solubility was 35.8 µg/mL (≈ 141 µM).

For the compound `COc1ccc(OCC(O)CNC(=O)Nc2cccc3ccccc23)cc1` (configuration not stated), the solubility (kinetic) amounted to 4.3 µg/mL (≈ 11.7 µM).

As for `CCOC(=O)Cn1c(C)cc(COC)c(C#N)c1=O`, the solubility (kinetic) is more than 39.6 µg/mL.

`Cc1ccc(Nc2nnc(SCC(=O)NCC3CCCO3)s2)cc1C` (configuration not stated) showed a kinetic solubility of more than 56.8 µg/mL.

For the compound `CC(=O)c1ccc(OCCCC(=O)NCCc2ccccc2)cc1`, the kinetic solubility is 38.8 µg/mL (≈ 119 µM).

Compound `O=C(NC(=S)N1CCCC(C(F)(F)F)C1)c1ccc(F)cc1` (configuration not stated) registered a kinetic solubility of 37.9 µg/mL (≈ 113 µM).

Take `O=C(Nc1nc2ccccc2[nH]1)c1cccc(Cl)c1`: the kinetic solubility is less than 0.2 µg/mL.

`COCC(C)N1CC(O)=C(c2nc(-c3ccc(Cl)cc3)cs2)C1=N` (configuration not stated) returned a solubility (kinetic) of 1.3 µg/mL (≈ 3.57 µM).

For `COc1cc(C(N)=O)cc(Cl)c1OC`, the solubility (kinetic) was more than 32.3 µg/mL.

In the case of `CC(C)(C)/C(COc1ccccc1[N+](=O)[O-])=N/O`, the solubility (kinetic) turned out to be 20.6 µg/mL (≈ 81.7 µM).

Compound `Cc1noc(C)c1C(=O)N(C)Cc1ccccc1` displayed a solubility (kinetic) of 34 µg/mL (≈ 139 µM).

As to `NC(=O)CCCc1nc(-c2ccccc2)no1`, the kinetic solubility was more than 34.7 µg/mL.
